From patent US20040236125A1, “Novel structures and compositions comprising sterols and/or stanols and specific classes of anti-inflammatory agents and use thereof in treating or preventing cardiovascular disease, its underlying conditions including hyperlipidemia and other disorders having inflammation as part of their …” (FORBES MEDI-TECH INC., priority 2002, published 2004)
Where two headings read alike, the source gives them in different places.

Legend:
COX-2 = COX-2 (Ovis aries, UniProt P79208); settings: 4.5 μM, n=3
COX-2, sequence (P79208 17-603): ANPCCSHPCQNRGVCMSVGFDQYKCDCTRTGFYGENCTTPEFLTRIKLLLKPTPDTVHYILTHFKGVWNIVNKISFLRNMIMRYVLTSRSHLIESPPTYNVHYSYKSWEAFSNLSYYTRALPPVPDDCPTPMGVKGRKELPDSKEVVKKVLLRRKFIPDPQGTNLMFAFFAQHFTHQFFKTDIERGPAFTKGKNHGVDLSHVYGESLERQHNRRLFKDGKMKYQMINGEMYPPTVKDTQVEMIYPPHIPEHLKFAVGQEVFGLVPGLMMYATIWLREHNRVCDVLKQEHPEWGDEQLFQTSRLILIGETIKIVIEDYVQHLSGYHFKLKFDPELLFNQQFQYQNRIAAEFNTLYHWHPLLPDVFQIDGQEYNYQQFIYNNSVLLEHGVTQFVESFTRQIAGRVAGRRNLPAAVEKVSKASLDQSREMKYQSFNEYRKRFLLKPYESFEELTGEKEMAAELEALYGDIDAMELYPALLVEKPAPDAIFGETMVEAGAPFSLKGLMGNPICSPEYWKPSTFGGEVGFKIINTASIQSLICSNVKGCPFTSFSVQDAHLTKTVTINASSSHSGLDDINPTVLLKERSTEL
Description: (§1) In summary, FDC-2-4 was treated with a 1:1 ratio of porcine pancreatic lipase and colipase (PL/C). Inhibition of cyclooxygenase was determined using a colorimetric (ovine) COX inhibitor screening assay. The conversion of arachidonic acid to prostaglandin H2 was monitored by a colorimetric reaction. […] Reaction was initiated by adding 100-μM arachidonic acid and 100-μM tetramethyl-p-phenylenediamine (TMPD—the colourimetric substrate). The optical density of the colored product was determined at 620 nm. Acetylsalicylate was used as a positive control in all experiments.
(§2) The solution was vortexed for 2 min. and sonicated for 5 min. before adding 2.5 mg porcine pancreatic lipase and 2.5 mg porcine colipase. The reaction was incubated at room temperature for 2 hours.
(§3) Inhibition was determined using a colorimetric (ovine) COX inhibitor screening assay (Cayman Chemicals). The conversion of arachidonic acid to prostaglandin H2 was monitored by a colorimetric reaction. COX was exposed to the inhibitors for 5 minutes. Reaction was initiated by adding 100-μM arachidonic acid and 100-μM tetramethyl-p-phenylenediamine (TMPD—the colourimetric substrate). The optical density of the colored product was determined at 620 nm 5 minutes after initiation. […] PL/C-treated FDC-2-4 was compared with non-PL/C-treated FDC-2-4 and control (no FDC-2-4 added) in determining COX inhibition. Acetylsalicylate (ASA), was used as a positive control in all experiments. Statistical Analysis on all treatment groups were done using ANOVA and Tukey Posthoc tests.

COX-1 = COX-1 (Ovis aries, UniProt P05979); settings: 0.45 μM, n=3
COX-1, sequence (P05979 25-600): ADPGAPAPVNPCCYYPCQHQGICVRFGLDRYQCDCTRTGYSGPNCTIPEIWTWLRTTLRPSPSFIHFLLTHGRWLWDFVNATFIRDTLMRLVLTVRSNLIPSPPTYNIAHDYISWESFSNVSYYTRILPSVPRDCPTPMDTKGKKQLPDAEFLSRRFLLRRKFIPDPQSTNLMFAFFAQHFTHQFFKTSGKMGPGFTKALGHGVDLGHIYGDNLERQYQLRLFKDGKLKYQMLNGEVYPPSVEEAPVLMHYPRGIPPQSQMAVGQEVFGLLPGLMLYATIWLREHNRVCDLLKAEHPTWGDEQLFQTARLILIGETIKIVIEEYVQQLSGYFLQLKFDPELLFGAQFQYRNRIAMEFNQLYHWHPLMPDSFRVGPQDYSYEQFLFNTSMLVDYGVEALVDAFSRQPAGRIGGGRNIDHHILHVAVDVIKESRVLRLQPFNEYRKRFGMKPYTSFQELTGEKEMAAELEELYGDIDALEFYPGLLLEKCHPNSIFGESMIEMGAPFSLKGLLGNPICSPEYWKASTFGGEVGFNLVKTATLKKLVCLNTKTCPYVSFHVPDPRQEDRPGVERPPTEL
Description: as §1, §2, §3

[1] = test system: cholesterol absorption in the intestine; settings: 20 mg/kg single-dose oral gavage in Intralipid 10% emulsion; blood 10 hours after gavage; FIG. 3
Description: Adult male Sprague Dawley rats (˜350 g) were maintained under a 12 h light (0700-1900)/dark cycle and supplied with a laboratory standard diet and water ad libitum prior to starting the experiment.
Both groups received a single-dose oral gavage at 0700. Blood collection was performed by cardiac puncture 10 hours after oral gavage. Animals were fasted after gavage. Access to water was permitted ad libitum during the experiment. Blood obtained by cardiac puncture was collected in EDTA-coated tubes and centrifuged. Plasma samples were analyzed for [3H] cholesterol by radioactivity.
Adult male Sprague Dawley rats were given one of the derivatives of the present invention in an oral formulation containing:
20 mg/kg sterol/stanol analogue
1 mg unlabeled cholesterol
25 μCi [3H] Cholesterol in an emulsion with Intralipid 10%.
Animals were fasted 12-16 hours before and 10 hours after the oral gavage was performed. Blood samples were collected by cardiac puncture 10 hours following oral gavage. Plasma samples obtained by centrifugation were analyzed for [3H] Cholesterol and results expressed as a percentage of inhibition of cholesterol absorption in the intestine.
In addition sodium hydroxide was added to adjust the pH so that the final product pH is 8.0; pH range is 6.0 to 8.9. […] Each animal received 20 mg/kg body weight test substance dissolved in water or other appropriate solvent. […]

[2] = PL/C-treated (pancreatic lipase/colipase)

For acetoxyphytostanyl salicylate [FDC-2-4], the “inhibition of COX-2” value (COX-2; [2]) was 88%, the “inhibition of COX-2” value (COX-2; non-PL/C-treated) was 64% and the “inhibition of COX-1 activity” value (COX-1; [2]) was 69%. For the same substance, the “inhibition of COX-1 activity” value (COX-1; non-PL/C-treated) was 20% and the “inhibition of cholesterol absorption (plasma [3H] cholesterol) compared with controls and VP4” value [1] was “significantly outperforms both the controls and VP4”.
